Source: US6331555A, “Treatment of platelet derived growth factor related disorders such as cancers” (priority 1999, dated 2001)
“Also recorded” adds a separate entry of the source.

Columns and labels:
U118 glioblastoma = experiment: SC xenograft in mice; assay type: in vivo, human; conditions: 15 mg/kg
Protocol: (§1) Cell lines were grown in appropriate medium (see Appendix 1). Cells were harvested at or near confluency with 0.05% Trypsin-EDTA and pelleted at 450×g for 10 min. Pellets were resuspended in sterile PBS or media (without FBS) to a particular concentration and the cells were implanted into the hindflank of mice. Tumor growth was measured over 3 to 6 weeks using venier calipers. Tumor volumes were calculated as a product of length×width×height unless otherwise indicated. P values were calculated using the Students' t-test.
(§2) C6 and SKOV-3(T) cells were grown in culture, as described in "cell growth" above, and implanted into the hind flank of a female Balb/c nu/nu mouse at 3×10^6 cells (for C6 experiments), or 1×10^7 cells (for SKOV-3 experiments) in […] of PBS on Day 0. U87MG, U118MG or U373MG human glioblastoma cells (obtained from the ATCC), or A4312 were also implanted into athymic mice. […] Tumors were measured using venier calipers and tumor volume was calculated as a product of tumor length, width, and height.

U373MG glioblastoma = experiment: SC xenograft in mice; assay type: in vivo, human
Protocol: as §1, §2

A431 epidermoid tumor = experiment: SC xenograft in mice; assay type: in vivo, human
Protocol: as §1, §2

SKOV3T ovarian tumor = experiment: SC xenograft in mice; assay type: in vivo, human
Protocol: as §1, §2

spleen cells = experiment: Normal immune function in mice responding to a primary immunization; assay type: in vivo, mouse; conditions: 20 mg/kg/day
Text: At the indicated times, animals were sacrificed, and the spleens were aseptically removed and placed into sterile medium. Spleens were processed into single cell suspensions by grinding between sterile frosted glass microscope slides. After a single wash to remove tissue debris, the spleen cells were resuspended in a hypotonic ammonium chloride buffer to lyse erythrocytes. Lymphocytes were washed and resuspended to the appropriate concentrations in complete medium, consisting of RPMI plus 10% heat-inactivated FBS, 2 mM glutamine, 50 μM β-mercaptoethanol, and penicillin-streptomycin. The responses of the lymphocytes were examined in the following assays according to accepted procedures (Current Protocols in Immunology. Coligan, J. E., Kruisbeek, A. M., Margulies, D. H., Shevach, E. M., Strober, W. (eds.) John Wiley and Sons, Inc., 1992).
The T-cell mitogen, ConA, and the T-cell independent B-cell mitogen, LPS, were added to 96-well round-bottom wells at the indicated concentrations. Lymphocytes from normal, vehicle-dosed, and drug-dosed animals were added at a final concentration of 2.5×10^5 /well. Cultures were usually set up in triplicate or quadruplicate. The plates were incubated at 37° C. in a humidified atmosphere containing 5% CO2 for the indicated times. Supernatants (approximately 100 μL) were carefully removed from the wells and stored at -80° C. for lymphokine and immunoglobulin analyses. To measure proliferation of the lymphocytes, 1 μCi of ^3 H-thymidine was added to each well, and the plates were incubated for 6 hr. The cultures were harvested onto glass fiber filters, and the incorporated radioactivity was quantitated by liquid scintillation counting (Betaplate, Wallac).
Lymphocytes from normal, vehicle-dosed, and drug-dosed animals were plated at 2.5×10^5 /well in round-bottom 96-well plates. Stimulator cells were then added at the same cell concentration. […] The plates were incubated for 3 to 4 days, at which time supernatants were harvested and the cultures were pulsed as described for the mitogen assays.
Supernatants from mitogen and MLR cultures were assayed for IL-2 and IL-6 content by the ability to support the growth of factor-dependent cell lines. HT-2 cells (10^4 /well, IL-2-dependent) and 7TD1 cells (2×10^3 /well, IL-6-dependent) were plated in 96-well flat-bottom plates, in 50 μL/well. Supernatants were added in 50 μL/well, and the plates were incubated overnight (HT-2) or four days (7TD1). Cellular proliferation was determined in the MTT colorimetric assay (Appendix 3.1).
Flat bottom 96-well EIA plates were coated with goat anti-mouse Ig antibodies (Southern Biotechnology) overnight at 4° C. The plates were blocked by the addition of PBS+1% BSA. After washing with PBS, supernatants from murine mitogen and MLR cultures were added and incubated at room temperature for 1 hr. The plates were washed with PBS, then HRP-labeled goat anti-mouse Ig antibodies were added and incubated at room temperature for 1 hr. The plates were washed and developed by the addition of substrate (ABTS).
BALB/c mice were immunized SC with 50 μg keyhole limpet hemocyanin (KLH) suspended in complete Freund's adjuvant (CFA); control mice were mock-immunized with an emulsion of phosphate-buffered saline (PBS) in CFA. […] On day 14, all mice were sacrificed, and their spleen cells were assayed. In addition , immune e responses to KLH and tetanus toxoid were measured as described in Appendix 5.

[1] = Effects of A10 on mortality (mice implanted with C6 cells); assay type: in vivo, mouse; conditions: mouse, in vivo, ip
Protocol: as §1

[2] = system: mice implanted with C6 cells; experiment: as above; assay type: in vivo, mouse
Protocol: as §1

SKOV3T cells = experiment: Survival, IP SKOV3T xenograft in BALB/c nu/nu mice; assay type: in vivo, human; conditions: 15 mg/kg/day IP in DMSO
Protocol: Cell lines were grown in the appropriate media as described in Appendix 1. Cells were harvested and washed in sterile PBS or medium without FBS, resuspended to a suitable concentration, and injected into the IP cavity of […] of the appropriate strain. Prior to implantation of 7TD1 cells, C57BL/6 mice were primed by IP injection of 0.5 mL Pristane. SKOV3T cells were implanted into athymic mice without Pristane priming. Mice were observed daily for the occurrence of ascites formation. Individual animals were sacrificed when they presented with a weight gain of 40%, or when the IP tumor burden began to cause undue stress and pain to the animal.
In one experiment, SKOV3T cells (2×10^6 cells) were implanted into the IP cavity of BALB/c, nu/nu mice.

U87MG cells = experiment: Intracerebral U87MG tumor, athymic mice, survival; assay type: in vivo, human; conditions: IC U87MG; control 60 days; P=0.15
[3] = mice xenotransplanted with human ovarian cancer cells

For `Cc1oncc1C(=O)Nc1ccc(C(F)(F)F)cc1` [Compound A10, 5-methylisoxazole-4 carboxylic acid-(4-trifluromethyl)-anilide], the “% Inhibition” value (U118 glioblastoma) was 57%, the “% Inhibition” value (U373MG glioblastoma; 15 mg/kg) was 54% and the “% Inhibition” value (U373MG glioblastoma; nu/nu, 15 mg/kg/day, day 37) was 54%. The “effect on A431 tumor growth” value (A431 epidermoid tumor; 15 mg/kg/day, DMSO) was “no more than 25%”, the “growth of xenograft” value (A431 epidermoid tumor; 12 to 20 mg/kg/day) was “did not significantly inhibit the growth of xenotransplanted cells expressing EGF receptor; also recorded: failed to significantly inhibit the growth” and the “% Inhibition” value (A431 epidermoid tumor; nu/nu, 15 mg/kg/day, day 15) was 40%. The “inhibition in tumor growth” value (SKOV3T ovarian tumor; 15 mg/kg/day (DMSO), after 20 days) was “greater than 90%”, the “cytotoxicity or mortality” value (SKOV3T ovarian tumor; [3]) was “without significant cytotoxicity or mortality” and the “ovarian tumor growth” value (SKOV3T ovarian tumor; [3]) was “nearly complete inhibition of ovarian tumor growth”. The “% Inhibition” value (SKOV3T ovarian tumor; nu/nu, 15 mg/kg/day, day 21) was 94%, the “In Vivo inhibition” value (SKOV3T ovarian tumor; xenografted athymic mice) was 95% and the IL-2 production (spleen cells; Allo) was 0. It also gave an IL-6 production (spleen cells; Allo) of 0, an Ig production (spleen cells; Allo) of 0 and an IL-2 production (spleen cells; ConA) of 0. For the same compound, the IL-6 production (spleen cells; ConA) was 0, the Ig production (spleen cells; ConA) was 0 and the IL-2 production (spleen cells; KLH) was 0. For the same compound, the IL-6 production (spleen cells; KLH) was 0, the Ig production (spleen cells; KLH) was 0 and the IL-2 production (spleen cells; LPS) was 0. It also gave an IL-6 production (spleen cells; LPS) of 0, an Ig production (spleen cells; LPS) of 0 and a mortality ([1]; 25 mg/kg/day (PBTE:D5W), 67 treatments, n 8) of 0%. It also gave a mortality ([1]; 30 mg/kg/day (PBTE), 48 treatments, n 4) of 50%, a mortality ([1]; 40 mg/kg/day (PBTE), 48 treatments, n 4) of 75% and a mortality ([2]; 20 mg/kg/day (DMSO), 21 treatments, n 26) of 54%. The mortality ([2]; 20 mg/kg/day (PBTE), 20-48 treatments, n 12) was 8%, the “mortality rate by formulation” value ([2]; PBTE:D5W compared to DMSO and PBTE) was “significantly reduced the mortality rate compared to DMSO formulations, and PBTE formulations” and the “survival” value (SKOV3T cells) was “significantly increase the survival”. The animals alive (SKOV3T cells; after 32 days) was 40%, the animals died (SKOV3T cells; by 28 days) was “one of A10 treated animals died by 28 days” and the mean survival (U87MG cells) was 65 days.
